We go through 1 compound from article PMC5218480 (PLoS ONE, 2017).

This assay has as its system MV-4-11 cells. The assay is described as follows: Gene expression microarray analysis (Affymetrix PrimeView) and GSEA. The assay is classed as cell-based, human. Also on record: RFU PODN (11730768_x_at) / Fold change /veh PODN (11730768_x_at) / RFU LINC00158 (11744669_a_at) / Fold change /veh LINC00158 (11744669_a_at) / RFU DUSP10 (11751237_a_at) / Fold change /veh DUSP10 (11751237_a_at) / RFU ID3 (11757404_x_at) / Fold change /veh ID3 (11757404_x_at) / RFU PLEKHG5 (11737974_s_at) / Fold change /veh PLEKHG5 (11737974_s_at) / RFU LRRC4B (11730491_at) / Fold change /veh LRRC4B (11730491_at) / RFU GIMAP4 (11747438_a_at) / Fold change /veh GIMAP4 (11747438_a_at) / RFU KRT8 (11758183_x_at) / Fold change /veh KRT8 (11758183_x_at) / RFU CNN1 (11734310_a_at) / Fold change /veh CNN1 (11734310_a_at) / RFU VPS37D (11726825_at) / Fold change /veh VPS37D (11726825_at) / RFU C10orf10 (11716522_x_at) / Fold change /veh C10orf10 (11716522_x_at) / RFU KIR2DL2 /// KIR2DL4 /// KIR2DL5A /// KIR2DL5B /// KIR2DS1 /// KIR2DS2 /// KIR2DS3 /// KIR2DS4 /// KIR3DL3 /// KIR3DL3 /// KIR3DS1 (11738374_at) / Fold change /veh KIR2DL2 /// KIR2DL4 /// KIR2DL5A /// KIR2DL5B /// KIR2DS1 /// KIR2DS2 /// KIR2DS3 /// KIR2DS4 /// KIR3DL3 /// KIR3DL3 /// KIR3DS1 (11738374_at) / RFU C1QL1 (11718748_at) / Fold change /veh C1QL1 (11718748_at) / RFU TMPRSS4 (11747572_a_at) / Fold change /veh TMPRSS4 (11747572_a_at) / RFU HAMP (11756126_x_at) / Fold change /veh HAMP (11756126_x_at) / RFU RNFT2 (11725882_a_at) / Fold change /veh RNFT2 (11725882_a_at) / RFU NR4A2 (11747474_a_at) / Fold change /veh NR4A2 (11747474_a_at) / RFU ABCC12 (11746883_a_at) / Fold change /veh ABCC12 (11746883_a_at) / RFU TMEM136 (11760407_x_at) / Fold change /veh TMEM136 (11760407_x_at) / RFU CLDN22 /// WWC2 (11732394_at) / Fold change /veh CLDN22 /// WWC2 (11732394_at) / RFU HLA-DPB1 (11760878_x_at) / Fold change /veh HLA-DPB1 (11760878_x_at) / RFU SPINT1 (11716480_a_at) / Fold change /veh SPINT1 (11716480_a_at) / RFU GAP43 (11754022_s_at) / Fold change /veh GAP43 (11754022_s_at) / RFU A4GNT (11735810_at) / Fold change /veh A4GNT (11735810_at) / RFU PRB3 (11715151_x_at) / Fold change /veh PRB3 (11715151_x_at) / RFU TUBB4B (11761932_at) / Fold change /veh TUBB4B (11761932_at) / RFU CAPN14 (11732068_a_at) / Fold change /veh CAPN14 (11732068_a_at) / RFU TMCC2 (11721928_a_at) / Fold change /veh TMCC2 (11721928_a_at) / RFU IRGQ (11745062_a_at) / Fold change /veh IRGQ (11745062_a_at) / RFU FAM174B (11720279_a_at) / Fold change /veh FAM174B (11720279_a_at) / RFU TMPRSS4 (11748680_a_at) / Fold change /veh TMPRSS4 (11748680_a_at) / RFU FAM212B (11763350_a_at) / Fold change /veh FAM212B (11763350_a_at) / RFU PLEKHG5 (11743358_a_at) / Fold change /veh PLEKHG5 (11743358_a_at) / RFU ZSCAN30 (11745921_a_at) / Fold change /veh ZSCAN30 (11745921_a_at) / RFU CMKLR1 (11741424_a_at) / Fold change /veh CMKLR1 (11741424_a_at) / RFU LOC101060620 /// MAPK8IP1 (11723275_at) / Fold change /veh LOC101060620 /// MAPK8IP1 (11723275_at) / RFU SPTSSB (11747773_x_at) / Fold change /veh SPTSSB (11747773_x_at) / RFU PRSS12 (11739890_at) / Fold change /veh PRSS12 (11739890_at) / RFU BIN1 (11741810_x_at) / Fold change /veh BIN1 (11741810_x_at) / RFU WNT11 (11732464_a_at) / Fold change /veh WNT11 (11732464_a_at) / RFU C10orf10 (11716521_a_at) / Fold change /veh C10orf10 (11716521_a_at) / RFU C5orf56 (11738089_at) / Fold change /veh C5orf56 (11738089_at) / RFU CYB561 (11721691_x_at) / Fold change /veh CYB561 (11721691_x_at) / RFU ANKRD19P (11752326_a_at) / Fold change /veh ANKRD19P (11752326_a_at) / RFU OR2T12 /// OR2T33 /// OR2T8 (11738714_s_at) / Fold change /veh OR2T12 /// OR2T33 /// OR2T8 (11738714_s_at) / RFU VCAN (11748164_a_at) / Fold change /veh VCAN (11748164_a_at) / RFU JSRP1 (11732532_at) / Fold change /veh JSRP1 (11732532_at) / RFU KRTAP10-11 (11738290_x_at) / Fold change /veh KRTAP10-11 (11738290_x_at) / RFU MYO3A (11730013_a_at) / Fold change /veh MYO3A (11730013_a_at) / RFU EBF3 (11725865_a_at) / Fold change /veh EBF3 (11725865_a_at) / RFU CAMK2N1 (11719241_x_at) / Fold change /veh CAMK2N1 (11719241_x_at) / RFU C5orf56 (11738088_a_at) / Fold change /veh C5orf56 (11738088_a_at) / RFU OLFML3 (11715873_a_at) / Fold change /veh OLFML3 (11715873_a_at) / RFU LOC100653217 /// NTM (11731650_a_at) / Fold change /veh LOC100653217 /// NTM (11731650_a_at) / RFU MAPK11 (11762145_a_at) / Fold change /veh MAPK11 (11762145_a_at) / RFU FIZ1 (11724087_x_at) / Fold change /veh FIZ1 (11724087_x_at) / RFU OASL (11726364_x_at) / Fold change /veh OASL (11726364_x_at) / RFU SOX15 (11748057_x_at) / Fold change /veh SOX15 (11748057_x_at) / RFU CD79A (11719716_a_at) / Fold change /veh CD79A (11719716_a_at) / RFU HIST1H1D (11736915_at) / Fold change /veh HIST1H1D (11736915_at) / RFU CASKIN2 (11723855_a_at) / Fold change /veh CASKIN2 (11723855_a_at) / RFU LOC730098 (11760151_x_at) / Fold change /veh LOC730098 (11760151_x_at) / RFU OR4N2 (11742367_at) / Fold change /veh OR4N2 (11742367_at) / RFU PRRT2 (11749266_a_at) / Fold change /veh PRRT2 (11749266_a_at) / RFU SNX32 (11753110_a_at) / Fold change /veh SNX32 (11753110_a_at) / RFU CDHR5 (11726645_a_at) / Fold change /veh CDHR5 (11726645_a_at) / RFU RCAN1 (11760418_a_at) / Fold change /veh RCAN1 (11760418_a_at) / RFU FAM167A (11723789_a_at) / Fold change /veh FAM167A (11723789_a_at) / RFU FAM26E (11764081_at) / Fold change /veh FAM26E (11764081_at) / RFU ISYNA1 (11749810_s_at) / Fold change /veh ISYNA1 (11749810_s_at) / RFU ACY1 (11761880_at) / Fold change /veh ACY1 (11761880_at) / RFU 11764098_at / Fold change /veh 11764098_at / RFU SAMD14 (11745864_x_at) / Fold change /veh SAMD14 (11745864_x_at) / RFU NPB (11741838_a_at) / Fold change /veh NPB (11741838_a_at) / RFU TMPRSS6 (11731388_a_at) / Fold change /veh TMPRSS6 (11731388_a_at) / RFU KRTAP10-2 (11738614_at) / Fold change /veh KRTAP10-2 (11738614_at) / RFU ARHGAP8 /// PRR5-ARHGAP8 (11727945_x_at) / Fold change /veh ARHGAP8 /// PRR5-ARHGAP8 (11727945_x_at) / RFU KRTAP5-7 /// NADSYN1 (11734609_at) / Fold change /veh KRTAP5-7 /// NADSYN1 (11734609_at) / RFU RASL12 (11751679_a_at) / Fold change /veh RASL12 (11751679_a_at) / RFU CDKN2B (11736163_a_at) / Fold change /veh CDKN2B (11736163_a_at) / RFU PRF1 (11729649_at) / Fold change /veh PRF1 (11729649_at) / RFU, ZNF638 /// ZNF638-IT1 / Fold change vs veh, ZNF638 /// ZNF638-IT1 / RFU, PANK3 / Fold change vs veh, PANK3 / RFU, SH3YL1 / Fold change vs veh, SH3YL1 / RFU, ZEB2 / Fold change vs veh, ZEB2 / RFU, NRIP1 / Fold change vs veh, NRIP1 / RFU, PTTG1IP / Fold change vs veh, PTTG1IP / RFU, CAPN2 / Fold change vs veh, CAPN2 / RFU, MED14 / Fold change vs veh, MED14 / RFU, SNORA58 / Fold change vs veh, SNORA58 / RFU, C1orf63 / Fold change vs veh, C1orf63 / RFU, LRRFIP1 / Fold change vs veh, LRRFIP1 / RFU, NDUFAF7 / Fold change vs veh, NDUFAF7 / RFU, SLC12A2 / Fold change vs veh, SLC12A2 / RFU, IBTK / Fold change vs veh, IBTK / RFU, ESF1 / Fold change vs veh, ESF1 / Fold change vs veh, TMEM50B / RFU, TAOK1 / Fold change vs veh, TAOK1 / RFU, ACBD3 / Fold change vs veh, ACBD3 / RFU, TMA16 / Fold change vs veh, TMA16 / RFU, RWDD3 / Fold change vs veh, RWDD3 / RFU, BCAT1 / Fold change vs veh, BCAT1 / RFU, EDEM3 / Fold change vs veh, EDEM3 / RFU, TMEM33 / Fold change vs veh, TMEM33 / RFU, WDR75 / Fold change vs veh, WDR75 / RFU, AHCTF1 / Fold change vs veh, AHCTF1 / RFU, TFRC / Fold change vs veh, TFRC / RFU, ZDHHC17 / Fold change vs veh, ZDHHC17 / RFU, NOM1 / Fold change vs veh, NOM1 / RFU, ARL8B / Fold change vs veh, ARL8B / RFU, ZBTB11 / Fold change vs veh, ZBTB11 / RFU, TAMM41 / Fold change vs veh, TAMM41 / RFU, KIAA1704 /// LOC100996395 / Fold change vs veh, KIAA1704 /// LOC100996395 / RFU, ING1 / Fold change vs veh, ING1 / RFU, TRMT61B / Fold change vs veh, TRMT61B / RFU, FUBP3 / Fold change vs veh, FUBP3 / RFU, TP53 / Fold change vs veh, TP53 / RFU, TNKS2 / Fold change vs veh, TNKS2 / RFU, ZFP14 / Fold change vs veh, ZFP14 / RFU, ACTR2 / Fold change vs veh, ACTR2 / RFU, PPP3R1 / Fold change vs veh, PPP3R1 / RFU, PIK3R1 / Fold change vs veh, PIK3R1 / RFU, HNRNPA1 / Fold change vs veh, HNRNPA1 / RFU, RNF170 / Fold change vs veh, RNF170 / RFU, ZNF28 / Fold change vs veh, ZNF28 / RFU, RNGTT / Fold change vs veh, RNGTT / RFU, OGT / Fold change vs veh, OGT / RFU, BRD1 / Fold change vs veh, BRD1 / RFU, MARS / Fold change vs veh, MARS / RFU, ZNF655 / Fold change vs veh, ZNF655 / RFU, FAHD1 / Fold change vs veh, FAHD1 / RFU, BDP1 / Fold change vs veh, BDP1 / RFU, LRRCC1 / Fold change vs veh, LRRCC1 / RFU, ARID1A / Fold change vs veh, ARID1A / RFU, ZNF146 / Fold change vs veh, ZNF146 / RFU, ZNF330 / Fold change vs veh, ZNF330 / RFU, GPN3 / Fold change vs veh, GPN3 / RFU, C9orf123 / Fold change vs veh, C9orf123 / RFU, N4BP2L2 / Fold change vs veh, N4BP2L2 / RFU, ARFIP1 / Fold change vs veh, ARFIP1 / RFU, FAM179B / Fold change vs veh, FAM179B / RFU, BCL10 / Fold change vs veh, BCL10 / RFU, UHRF1BP1L / Fold change vs veh, UHRF1BP1L / RFU, BET1 / Fold change vs veh, BET1 / RFU, CNOT2 / Fold change vs veh, CNOT2 / RFU, ZNF268 / Fold change vs veh, ZNF268 / Fold change vs veh, ZNF507 / RFU, DGCR2 / Fold change vs veh, DGCR2 / RFU, WDSUB1 / Fold change vs veh, WDSUB1 / Fold change vs veh, HSP90B1 /// MIR3652 / RFU, ADSS / Fold change vs veh, ADSS / RFU, GK / Fold change vs veh, GK / RFU, ZNF148 / Fold change vs veh, ZNF148 / RFU, TAF9 / Fold change vs veh, TAF9 / RFU, SLC1A5 / Fold change vs veh, SLC1A5 / RFU, SLMO2 / Fold change vs veh, SLMO2 / RFU, ABCC4 / Fold change vs veh, ABCC4 / RFU, LOC101060439 /// RAP1B / Fold change vs veh, LOC101060439 /// RAP1B / RFU, RFX7 / Fold change vs veh, RFX7 / RFU, GTPBP10 / Fold change vs veh, GTPBP10 / RFU, CNEP1R1 / Fold change vs veh, CNEP1R1 / RFU, BIVM-ERCC5 /// ERCC5 / Fold change vs veh, BIVM-ERCC5 /// ERCC5 / RFU, ILF3 / Fold change vs veh, ILF3 / RFU 11762660_at / Fold change /veh 11762660_at / RFU VCAN (11757783_s_at) / Fold change /veh VCAN (11757783_s_at) / RFU DDX43 (11728927_at) / Fold change /veh DDX43 (11728927_at) / RFU KRT8 (11758188_x_at) / Fold change /veh KRT8 (11758188_x_at) / RFU NKD1 (11759106_at) / Fold change /veh NKD1 (11759106_at) / RFU SRD5A1 (11742802_a_at) / Fold change /veh SRD5A1 (11742802_a_at) / RFU TPSAB1 /// TPSB2 (11721975_s_at) / Fold change /veh TPSAB1 /// TPSB2 (11721975_s_at) / RFU GSTM3 (11746129_a_at) / Fold change /veh GSTM3 (11746129_a_at) / RFU IL23R (11737362_x_at) / Fold change /veh IL23R (11737362_x_at) / RFU TMEM51 (11727254_a_at) / Fold change /veh TMEM51 (11727254_a_at) / RFU PIWIL2 (11732686_x_at) / Fold change /veh PIWIL2 (11732686_x_at) / RFU ORM1 (11744905_x_at) / Fold change /veh ORM1 (11744905_x_at) / RFU CCDC152 (11743942_at) / Fold change /veh CCDC152 (11743942_at) / RFU ECM1 (11717891_a_at) / Fold change /veh ECM1 (11717891_a_at) / RFU IL23R (11748794_a_at) / Fold change /veh IL23R (11748794_a_at) / RFU TNFAIP8L3 (11732012_x_at) / Fold change /veh TNFAIP8L3 (11732012_x_at) / RFU MBOAT4 (11741988_at) / Fold change /veh MBOAT4 (11741988_at) / RFU 11764193_at / Fold change /veh 11764193_at / RFU TMEM53 (11763286_at) / Fold change /veh TMEM53 (11763286_at) / RFU MAGEB2 (11727129_at) / Fold change /veh MAGEB2 (11727129_at) / RFU TMEM200A (11744735_a_at) / Fold change /veh TMEM200A (11744735_a_at) / RFU CCDC152 (11751479_a_at) / Fold change /veh CCDC152 (11751479_a_at) / RFU FAM211A (11726209_a_at) / Fold change /veh FAM211A (11726209_a_at) / RFU RGS16 (11746705_a_at) / Fold change /veh RGS16 (11746705_a_at) / RFU VCAN (11755009_s_at) / Fold change /veh VCAN (11755009_s_at) / RFU RHOB (11743442_s_at) / Fold change /veh RHOB (11743442_s_at) / RFU RGS16 (11720943_a_at) / Fold change /veh RGS16 (11720943_a_at) / RFU RGS16 (11720944_at) / Fold change /veh RGS16 (11720944_at) / RFU, VPS4B / Fold change vs veh, VPS4B / RFU, CREB1 / Fold change vs veh, CREB1 / RFU, DNAJC13 / Fold change vs veh, DNAJC13 / RFU, GNAQ / Fold change vs veh, GNAQ / RFU, CDK5R1 / Fold change vs veh, CDK5R1 / RFU, ZRANB3 / Fold change vs veh, ZRANB3 / RFU, CUL4A / Fold change vs veh, CUL4A / RFU, CCNY / Fold change vs veh, CCNY / RFU, UFL1 / Fold change vs veh, UFL1 / RFU, COG3 / Fold change vs veh, COG3 / RFU, DIAPH2 / Fold change vs veh, DIAPH2 / RFU, SKA2 / Fold change vs veh, SKA2 / RFU, AFF3 / Fold change vs veh, AFF3 / RFU, LMF1 / Fold change vs veh, LMF1 / RFU, IPO11 / Fold change vs veh, IPO11 / RFU, DFFB / Fold change vs veh, DFFB / RFU, FOXP1 / Fold change vs veh, FOXP1 / RFU, CARD8 / Fold change vs veh, CARD8 / RFU, STRN3 / Fold change vs veh, STRN3 / RFU, ADK / Fold change vs veh, ADK / RFU, RASSF2 / Fold change vs veh, RASSF2 / RFU, WIPF1 / Fold change vs veh, WIPF1 / RFU, LARP1B / Fold change vs veh, LARP1B / RFU, RASA1 / Fold change vs veh, RASA1 / RFU, RB1 / Fold change vs veh, RB1 / RFU, PPFIA1 / Fold change vs veh, PPFIA1 / RFU, MAT2A / Fold change vs veh, MAT2A / RFU, CCT5 / Fold change vs veh, CCT5 / RFU, WDR92 / Fold change vs veh, WDR92 / RFU, CUX1 / Fold change vs veh, CUX1 / RFU, TTC7A / Fold change vs veh, TTC7A / RFU, TMEM135 / Fold change vs veh, TMEM135 / RFU, DEPTOR / Fold change vs veh, DEPTOR / RFU, CPM / Fold change vs veh, CPM / RFU, DNAJB6 / Fold change vs veh, DNAJB6 / RFU, CACNA2D3 / Fold change vs veh, CACNA2D3 / RFU, DTX4 / Fold change vs veh, DTX4 / RFU, TFCP2 / Fold change vs veh, TFCP2 / RFU, GMCL1 /// GMCL1P1 / Fold change vs veh, GMCL1 /// GMCL1P1 / RFU, AEBP2 / Fold change vs veh, AEBP2 / RFU, SNHG1 /// SNORD22 /// SNORD25 /// SNORD26 /// SNORD27 /// SNORD28 /// SNORD29 /// SNORD31 / Fold change vs veh, SNHG1 /// SNORD22 /// SNORD25 /// SNORD26 /// SNORD27 /// SNORD28 /// SNORD29 /// SNORD31 / Fold change (Aza/veh), C12orf56 (ProbeSet 11735607_a_at) / Fold change (ACY-1035/veh), C12orf56 (ProbeSet 11735607_a_at) / Fold change (Aza/veh), FGFR1OP (ProbeSet 11751329_s_at) / Fold change (ACY-1035/veh), FGFR1OP (ProbeSet 11751329_s_at) / Fold change (Aza/veh), VPS36 (ProbeSet 11739960_a_at) / Fold change (ACY-1035/veh), VPS36 (ProbeSet 11739960_a_at) / RFU SYPL1 (11715823_x_at) / Fold change /veh SYPL1 (11715823_x_at) / RFU IGFBP7 (11715501_s_at) / Fold change /veh IGFBP7 (11715501_s_at) / RFU REEP3 (11722064_at) / Fold change /veh REEP3 (11722064_at) / RFU IGLL1 (11728026_x_at) / Fold change /veh IGLL1 (11728026_x_at): dose or concentration left out as unconfirmed. The note with it: ProbeSet 11740011_at; LIST B.

With `Nc1ccc(-c2cccs2)cc1NC(=O)c1ccc2c(c1)cc(C1CC1)n2CCN1CCOCC1` [ACY-1035], the “Fold change vs veh, ZFP14” value came out at 1.03.
